Data on 1 compound can be found in publication PMC4177084 (Journal of Thyroid Research, 2014).

One assay deals with T1, KIT(V560G) (Homo sapiens, UniProt P10721, V560G).
T1 construct: purchased Carna Biosciences, Inc. (Kobe, Japan)
Description: Cell free kinase inhibition assay. The format is biochemical.

The target in another assay is T2, PDGFRα(V561D) (Homo sapiens, UniProt P16234, V561D).
T2 construct: purchased Carna Biosciences, Inc. (Kobe, Japan)
Kind of assay: Cell free kinase inhibition assay. In kind it is biochemical.

For another assay, the target named is T3, PDGFRα (Homo sapiens, UniProt P16234).
T3 construct: purchased Carna Biosciences, Inc. (Kobe, Japan)
Description: Cell free kinase inhibition assay. In kind it is biochemical.

A further assay has as its target T4, FGFR3 (Homo sapiens, UniProt P22607).
T4 construct: purchased Carna Biosciences, Inc. (Kobe, Japan)
Kind of assay: Cell free kinase inhibition assay. In kind it is biochemical.

The target of the next assay is T5, LCK (Homo sapiens, UniProt P06239).
T5 construct: purchased Carna Biosciences, Inc. (Kobe, Japan)
Kind of assay: Cell free kinase inhibition assay. In kind it is biochemical.

In a further assay the target is T6, FRK (Homo sapiens, UniProt P42685).
T6 construct: purchased Carna Biosciences, Inc. (Kobe, Japan)
Description: Cell free kinase inhibition assay. In kind it is biochemical.

The next assay concerns the target T7, TIE2 (Homo sapiens, UniProt Q02763).
T7 construct: purchased Carna Biosciences, Inc. (Kobe, Japan)
Kind of assay: Cell free kinase inhibition assay. In kind it is biochemical.

The target of another assay is T8, EPHB3 (Homo sapiens, UniProt P54753).
T8 construct: purchased Carna Biosciences, Inc. (Kobe, Japan)
Description: Cell free kinase inhibition assay. In kind it is biochemical.

The target in another assay is T9, IGF1R (Homo sapiens, UniProt P08069).
T9 construct: purchased Carna Biosciences, Inc. (Kobe, Japan)
Description: Cell free kinase inhibition assay. In kind it is biochemical.

The target in a further assay is T10, CDK6 (Homo sapiens, UniProt Q00534).
T10 construct: purchased Carna Biosciences, Inc. (Kobe, Japan)
Description: Cell free kinase inhibition assay. The format is biochemical.

A further assay addresses T11, CHK1 (Homo sapiens, UniProt O14757).
T11 construct: purchased Carna Biosciences, Inc. (Kobe, Japan)
Kind of assay: Cell free kinase inhibition assay. The format is biochemical.

For the next assay, the target named is T12, PIM1 (Homo sapiens, UniProt P11309).
T12 construct: purchased Carna Biosciences, Inc. (Kobe, Japan)
Kind of assay: Cell free kinase inhibition assay. The format is biochemical.

The target of a further assay is T13, PKACα (Homo sapiens, UniProt P17612).
T13 construct: purchased Carna Biosciences, Inc. (Kobe, Japan)
Kind of assay: Cell free kinase inhibition assay. The format is biochemical.

A further assay deals with RO82-W-1 cells. Kind of assay: Antiproliferation assay (WST-8). The format is cell-based, human. The note with it: Homo sapiens, 72 h; RO82-W-1 (DTC), antiproliferative, 3 days.
A further assay concerns KHM-5M cells. Description: Antiproliferation assay (WST-8). The format is cell-based. To be noted: Homo sapiens, 72 h; KHM-5M (ATC), antiproliferative, 3 days.
In a further assay the test system is K1 xenograft. Description: Human thyroid cancer xenograft model, tumor growth. The note with it: K1 xenograft, 1, 3, and 10 mg/kg oral once daily 14 days. In kind it is in vivo, nude mice. On the procedure:
(§1) Nude mice (CAnN.Cg-Foxn1nu/CrlCrlj, female, 5-6 weeks old) were obtained from Charles River Laboratories Japan (Kanagawa, Japan). Mice were maintained under specific pathogen-free conditions and housed in barrier facilities on a 12 h light/dark cycle, with food and water ad libitum. All procedures using laboratory animals were done in accordance with all applicable institutional and government regulatory guidelines and policies and were performed in an animal facility accredited by the Center for Accreditation of Laboratory Animal Care of the Japan Health Sciences Foundation. Tumor cells were cultured in appropriate culture mediums. […] Then, 0.1-0.2 mL of the cell suspension was inoculated subcutaneously into the right flank region of each mouse. […] The tumor size was measured in two dimensions by using a caliper, and the volume was calculated by using the formula: tumor volume (mm^3) = 1/2 length (mm) × [width (mm)]^2. The change in tumor volume in the treated group relative to that in the control group was calculated according to the following formula: ΔT/C = (ΔT/ΔC) × 100%, where ΔT and ΔC are the change in tumor volume (i.e., growth) for the treated and vehicle control group, respectively. The percentage of tumor growth inhibition (%TGI) was calculated from the formula: [(1 − ΔT/ΔC) × 100].

The next assay concerns TT xenograft. Kind of assay: Human thyroid cancer xenograft model, tumor growth. In kind it is in vivo, nude mice. How it is done: as §1
Assay [1] relates to tumor microvessels in 5 ATC xenografts. Description: Microvessel density (CD31 immunohistochemistry) in xenografts. The format is in vivo, nude mice. The note with it: all 5 ATC xenograft models, 10 and 100 mg/kg. An excerpt:
(§2) Tumor tissues were resected from nude mice, embedded in Optimal Cutting Temperature (OCT) compound (Sakura Finetek Japan, Tokyo, Japan), frozen in dry ice-acetone, and then sectioned (8 μm), or they were embedded in paraffin, fixed overnight in immunohistochemical (IHC) Zinc Fixative (BD Biosciences), and then sectioned (6 μm). Tumor microvessels were stained by the indirect immunoperoxidase method with a rat anti-mouse CD31 monoclonal antibody (clone MEC13.3, BD Biosciences) and then visualized by using Vectastain ABC (Dako, Tokyo, Japan). Pericyte was stained by the indirect alkaline phosphatase method with an anti-α smooth muscle actin (SMA) antibody conjugated alkaline phosphatase (A 5691, Sigma-Aldrich) and visualized by using Simple Stain AP(R) (Nichirei Biosciences Inc, Tokyo, Japan). Adjacent sections were stained with Hematoxylin-Eosin. Microvessel density (MVD) was determined as described previously. Each section was scanned by using a microscope (VANOX AHBS3, Olympus, Tokyo, Japan) at low magnification to identify 5 areas with the highest densities of CD31-stained microvessels. The microvessels in the selected areas were then counted at 400x magnification. MVD was recorded as the number of microvessels per mm^2. In the DTC xenografts, the percentage of pericyte-covered microvessels was analyzed. Pericyte-covered vessels were identified by examining the colocalization of CD31- (endothelial cells-) positive vessels and αSMA- (pericytes-) positive cells. The number of pericyte-covered vessels was counted in the selected area and then compared with the total number of CD31-stained microvessels in the same area. The percentage of pericyte-covered microvessels was calculated as the number of pericyte-covered microvessels/total number of microvessels × 100 in the selected area. The MVD in the ATC xenograft models was determined by using the digital pathology system ScanScope XT (Aperio, Vista, CA). Briefly, CD31-stained whole tissue slices were scanned on the ScanScope system (Aperio) to generate high-resolution digital slides. By using a digital slide viewer, Aperio ImageScope (v10.0.36.1805, Aperio), 5 regions of interest (ROIs: each 500 μm square) were manually selected as areas with the highest densities of CD31-stained microvessels in each tumor slice. The number of microvessels in each ROI was measured by using Microvessel Analysis Algorithm v1.0 (Aperio), which automatically detects and quantifies microvessels on slides stained with endothelial markers. MVD was expressed as the number of microvessels per mm^2. […] The percentage of microvessel inhibition (%MVI) was calculated from the microvessel density (MVD) according to the following formula: [(1 − MVD of tumor in each compound-treated animal/Mean MVD of tumors in the vehicle control-treated group) × 100].

In assay [2] the test system is tumor microvessels in 5 DTC xenografts. The description is as above. In kind it is in vivo, nude mice.
From the text: as §2

The subject of assay [3] is tumor microvessels in TT xenografts. The description is as above. The note with it: 10 or 100 mg/kg. The format is in vivo, nude mice.
From the text: as §2

T3 sequence (P16234 24-1089): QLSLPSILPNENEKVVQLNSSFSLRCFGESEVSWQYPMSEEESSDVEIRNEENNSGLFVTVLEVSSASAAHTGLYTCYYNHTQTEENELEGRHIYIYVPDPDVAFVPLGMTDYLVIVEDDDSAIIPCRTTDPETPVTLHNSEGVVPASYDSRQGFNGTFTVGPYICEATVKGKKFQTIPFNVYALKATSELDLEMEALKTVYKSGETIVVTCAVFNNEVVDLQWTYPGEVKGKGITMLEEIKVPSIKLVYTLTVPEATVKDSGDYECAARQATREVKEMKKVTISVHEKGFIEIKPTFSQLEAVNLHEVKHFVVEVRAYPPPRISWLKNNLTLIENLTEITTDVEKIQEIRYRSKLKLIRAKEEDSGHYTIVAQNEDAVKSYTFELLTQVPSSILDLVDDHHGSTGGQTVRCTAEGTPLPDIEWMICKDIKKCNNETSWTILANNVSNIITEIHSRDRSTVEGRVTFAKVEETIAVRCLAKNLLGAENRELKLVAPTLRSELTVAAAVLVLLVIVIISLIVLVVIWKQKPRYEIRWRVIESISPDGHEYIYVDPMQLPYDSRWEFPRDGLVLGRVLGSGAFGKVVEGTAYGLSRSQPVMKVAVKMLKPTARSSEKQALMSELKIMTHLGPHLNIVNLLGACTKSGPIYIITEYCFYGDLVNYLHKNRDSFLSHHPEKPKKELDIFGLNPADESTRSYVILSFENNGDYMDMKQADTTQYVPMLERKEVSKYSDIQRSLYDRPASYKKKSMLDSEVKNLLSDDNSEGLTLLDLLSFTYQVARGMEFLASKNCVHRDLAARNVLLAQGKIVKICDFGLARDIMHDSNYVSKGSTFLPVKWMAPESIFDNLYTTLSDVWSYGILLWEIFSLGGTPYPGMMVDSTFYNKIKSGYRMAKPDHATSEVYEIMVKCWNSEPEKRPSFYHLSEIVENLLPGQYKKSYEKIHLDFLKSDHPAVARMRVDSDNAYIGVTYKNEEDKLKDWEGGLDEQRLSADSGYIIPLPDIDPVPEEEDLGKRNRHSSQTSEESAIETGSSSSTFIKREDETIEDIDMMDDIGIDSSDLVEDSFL
T4 sequence (P22607 23-806): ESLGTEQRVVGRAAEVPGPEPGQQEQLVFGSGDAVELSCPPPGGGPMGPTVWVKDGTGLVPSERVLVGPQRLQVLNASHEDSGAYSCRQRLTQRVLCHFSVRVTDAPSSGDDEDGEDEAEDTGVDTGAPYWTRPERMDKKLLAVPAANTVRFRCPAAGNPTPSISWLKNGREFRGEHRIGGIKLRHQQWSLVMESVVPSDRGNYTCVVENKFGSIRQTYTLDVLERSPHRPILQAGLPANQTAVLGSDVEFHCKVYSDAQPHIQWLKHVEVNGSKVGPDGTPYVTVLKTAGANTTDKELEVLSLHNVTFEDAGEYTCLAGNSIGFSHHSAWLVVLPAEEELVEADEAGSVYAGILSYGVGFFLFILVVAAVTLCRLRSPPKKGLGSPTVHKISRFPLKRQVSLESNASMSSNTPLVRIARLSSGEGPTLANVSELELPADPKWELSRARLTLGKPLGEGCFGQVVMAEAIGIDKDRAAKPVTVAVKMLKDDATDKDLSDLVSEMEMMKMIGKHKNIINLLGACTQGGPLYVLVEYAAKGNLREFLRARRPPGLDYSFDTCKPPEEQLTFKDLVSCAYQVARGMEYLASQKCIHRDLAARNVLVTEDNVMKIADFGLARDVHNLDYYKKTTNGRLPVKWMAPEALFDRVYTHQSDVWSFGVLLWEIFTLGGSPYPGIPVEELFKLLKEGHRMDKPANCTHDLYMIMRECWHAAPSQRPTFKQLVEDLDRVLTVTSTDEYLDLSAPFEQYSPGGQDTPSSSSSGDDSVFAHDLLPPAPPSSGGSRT
T5 sequence (P06239 whole entry): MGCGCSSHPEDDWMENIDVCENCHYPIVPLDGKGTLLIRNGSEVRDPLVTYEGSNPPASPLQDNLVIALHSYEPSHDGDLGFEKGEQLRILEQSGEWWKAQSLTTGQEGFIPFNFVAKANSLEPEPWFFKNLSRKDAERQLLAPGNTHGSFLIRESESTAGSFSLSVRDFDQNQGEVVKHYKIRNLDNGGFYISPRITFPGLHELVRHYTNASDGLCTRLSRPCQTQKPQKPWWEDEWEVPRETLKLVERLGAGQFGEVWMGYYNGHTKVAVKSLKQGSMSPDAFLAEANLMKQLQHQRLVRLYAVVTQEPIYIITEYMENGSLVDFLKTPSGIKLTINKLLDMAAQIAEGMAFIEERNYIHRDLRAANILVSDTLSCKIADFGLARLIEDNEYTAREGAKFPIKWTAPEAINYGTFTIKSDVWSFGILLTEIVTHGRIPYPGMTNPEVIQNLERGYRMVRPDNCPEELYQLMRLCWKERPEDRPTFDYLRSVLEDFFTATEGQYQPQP
T2 sequence (P16234 24-1089 V561D): as the sequence (P16234 24-1089) above, with V538D counted along it
T8 sequence (P54753 34-998): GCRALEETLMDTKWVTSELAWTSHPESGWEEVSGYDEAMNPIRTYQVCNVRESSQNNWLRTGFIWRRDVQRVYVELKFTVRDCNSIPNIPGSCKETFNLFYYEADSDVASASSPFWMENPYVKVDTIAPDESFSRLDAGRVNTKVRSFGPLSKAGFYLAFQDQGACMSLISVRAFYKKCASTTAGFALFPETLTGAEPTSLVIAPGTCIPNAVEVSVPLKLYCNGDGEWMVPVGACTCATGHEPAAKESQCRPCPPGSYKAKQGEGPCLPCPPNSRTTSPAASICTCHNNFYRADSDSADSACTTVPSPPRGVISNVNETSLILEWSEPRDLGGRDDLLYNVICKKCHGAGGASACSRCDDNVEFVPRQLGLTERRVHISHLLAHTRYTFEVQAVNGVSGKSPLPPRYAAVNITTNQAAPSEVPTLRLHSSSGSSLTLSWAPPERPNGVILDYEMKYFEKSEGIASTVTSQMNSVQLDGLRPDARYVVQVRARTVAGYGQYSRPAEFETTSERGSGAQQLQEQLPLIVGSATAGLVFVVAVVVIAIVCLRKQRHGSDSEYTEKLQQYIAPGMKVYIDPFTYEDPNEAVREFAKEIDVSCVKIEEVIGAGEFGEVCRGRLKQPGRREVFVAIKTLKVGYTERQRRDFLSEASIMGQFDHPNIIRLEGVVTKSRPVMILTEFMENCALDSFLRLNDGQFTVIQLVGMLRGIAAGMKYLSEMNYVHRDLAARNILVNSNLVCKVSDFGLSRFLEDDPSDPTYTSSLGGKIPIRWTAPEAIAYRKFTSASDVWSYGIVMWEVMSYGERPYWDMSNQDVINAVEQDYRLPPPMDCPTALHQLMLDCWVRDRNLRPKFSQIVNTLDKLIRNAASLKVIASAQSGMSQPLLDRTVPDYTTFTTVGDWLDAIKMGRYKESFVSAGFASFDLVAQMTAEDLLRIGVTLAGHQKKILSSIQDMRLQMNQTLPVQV
T1 sequence (P10721 26-976 V560G): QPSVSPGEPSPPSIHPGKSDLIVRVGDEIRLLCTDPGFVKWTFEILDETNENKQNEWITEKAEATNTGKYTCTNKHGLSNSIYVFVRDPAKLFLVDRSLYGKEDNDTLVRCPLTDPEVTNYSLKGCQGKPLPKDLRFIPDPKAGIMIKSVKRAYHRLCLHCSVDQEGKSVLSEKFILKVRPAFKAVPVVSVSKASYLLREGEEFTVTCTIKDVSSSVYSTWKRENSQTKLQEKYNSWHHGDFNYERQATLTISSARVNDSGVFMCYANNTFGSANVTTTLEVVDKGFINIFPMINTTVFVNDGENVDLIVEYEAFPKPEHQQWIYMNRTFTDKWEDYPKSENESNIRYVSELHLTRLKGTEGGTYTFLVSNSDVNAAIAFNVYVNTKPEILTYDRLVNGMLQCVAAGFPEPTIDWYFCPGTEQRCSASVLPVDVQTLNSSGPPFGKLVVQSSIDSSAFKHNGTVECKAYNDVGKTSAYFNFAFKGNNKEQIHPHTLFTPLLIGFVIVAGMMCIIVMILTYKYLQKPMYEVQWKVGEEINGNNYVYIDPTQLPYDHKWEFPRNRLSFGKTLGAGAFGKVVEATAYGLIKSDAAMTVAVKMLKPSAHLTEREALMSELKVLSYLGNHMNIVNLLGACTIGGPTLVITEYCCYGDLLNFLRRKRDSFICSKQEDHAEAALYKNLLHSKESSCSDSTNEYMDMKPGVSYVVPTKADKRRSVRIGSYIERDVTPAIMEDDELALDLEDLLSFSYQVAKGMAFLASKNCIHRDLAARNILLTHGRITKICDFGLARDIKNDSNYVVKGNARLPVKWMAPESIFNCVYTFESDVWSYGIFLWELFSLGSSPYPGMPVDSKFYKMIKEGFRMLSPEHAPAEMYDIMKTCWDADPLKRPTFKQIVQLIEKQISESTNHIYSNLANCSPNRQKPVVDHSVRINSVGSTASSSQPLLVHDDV
T10 sequence (Q00534 whole entry): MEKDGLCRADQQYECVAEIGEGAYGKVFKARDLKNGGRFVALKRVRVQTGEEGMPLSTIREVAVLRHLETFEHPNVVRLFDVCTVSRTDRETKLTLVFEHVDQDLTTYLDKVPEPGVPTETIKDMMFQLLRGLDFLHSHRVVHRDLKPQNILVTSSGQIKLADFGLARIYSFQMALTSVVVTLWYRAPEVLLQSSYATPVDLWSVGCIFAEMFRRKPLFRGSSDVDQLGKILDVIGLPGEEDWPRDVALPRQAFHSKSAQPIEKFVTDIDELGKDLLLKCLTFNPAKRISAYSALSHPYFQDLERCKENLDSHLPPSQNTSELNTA
T10 sequence (P30281 whole entry partner): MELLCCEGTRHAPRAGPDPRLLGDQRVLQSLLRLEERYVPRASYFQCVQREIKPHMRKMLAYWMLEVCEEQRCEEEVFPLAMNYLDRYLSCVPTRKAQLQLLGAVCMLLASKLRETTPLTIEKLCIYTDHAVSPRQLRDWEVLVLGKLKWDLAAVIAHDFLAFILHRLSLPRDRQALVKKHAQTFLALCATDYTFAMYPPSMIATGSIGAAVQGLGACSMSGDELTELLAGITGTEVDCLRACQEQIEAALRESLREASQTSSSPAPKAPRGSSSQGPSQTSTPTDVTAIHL

Turning to `COc1cc2nccc(Oc3ccc(NC(=O)NC4CC4)c(Cl)c3)c2cc1C(N)=O` [Lenvatinib, Lenvatinib mesilate], the IC50 at KIT(V560G) was 0.00074 µM; against PDGFRα(V561D) it was 0.025 µM; against PDGFRα it was 0.029 µM; against FGFR3 it was 0.052 µM; against LCK, 0.13 µM; against FRK, 0.16 µM. Further, the IC50 is 2.5 µM on TIE2; greater than 10 µM on EPHB3; greater than 10 µM at IGF1R; greater than 10 µM against CDK6; greater than 10 µM against CHK1; greater than 10 µM at PIM1. The figures for the IC50 on PKACα, with RO82-W-1 cells and in the assay with KHM-5M cells were greater than 10 µM, 3.8 µM and 28 µM, respectively. Also, the antitumor activity entry in the assay on K1 xenograft is on record as “significant antitumor activity”. The tumor volume change entry in the assay on TT xenograft (TT xenografts, 100 mg/kg oral once daily 29 days) was “tumor shrinkage”. For the same compound, in the assay with TT xenograft (TT xenografts, 10, 30, and 100 mg/kg oral once daily 29 days), the “in vivo tumor growth” value was “inhibited in vivo tumor growth of TT xenografts in a dose-dependent manner”. The MVD result in assay [1] was “decreased significantly”; in assay [2] (10 mg/kg), “significantly decreased in 4 of the 5 DTC xenografts”; in assay [2] (100 mg/kg, all of the 5), “significantly decreased”; in assay [3] it was “did not decrease the MVDs”.
